# Measured values taken from article PMC5618421, “Anti-Inflammatory Effects of Curvularin-Type Metabolites from a Marine-Derived Fungal Strain Penicillium sp. SF-5859 in Lipopolysaccharide-Induced RAW264.7 Macrophages” (Marine Drugs, 2017).
# Assays:
# [1] = test system: PGE2 production in LPS-treated RAW 264.7 macrophages; experiment: Inhibition of PGE2 production (PGE2 ELISA kit) in LPS-treated RAW264.7 macrophages; assay type: cell-based; conditions: Mus musculus, RAW264.7 macrophages pre-treated 3 h with compound, then LPS (1 μg/mL) 24 h
# Experimental: (§1) All isolated compounds (1–9) were evaluated for their anti-inflammatory effects. […] NO is a small molecule which is an intracellular mediator produced in various immune cells. It plays a pivotal role in the physiological and pathological condition of inflammatory symptoms. PGE2 can also regulate the immune and inflammatory responses. In this study, RAW264.7 macrophages were pre-treated for 3 h in the medium containing non-toxic concentrations (Table 2) of each compound (1–9), and then LPS (1 μg/mL) was treated for 24 h. According to the LPS stimulation of RAW264.7 macrophages, production of NO and PGE2 was increased, and the effects of all compounds on the production level of NO and PGE2 were evaluated by the Griess reaction and a PGE2 kit, respectively. […] To evaluate the impact of phenol and resorcinol groups in the curvularin-type metabolites for the anti-inflammatory activity, 5-O-methyl and 5,7,-di-O-methyl derivatives of curvularin (3a and 3b, respectively), as well as 5-O-acetyl and 5,7,-di-O-acetyl derivatives of curvularin (3c and 3d, respectively), were prepared, and the structures of 3a–3d were identified by comparison the ^1H and ^13C-NMR spectroscopic data with those of curvularin (3), and confirmed by their HRESIMS. […] The position of the methoxy group in 3a was confirmed by HMBC correlation between methoxy signal at δH 3.77 (3H, s, 5-OCH3) and δC 161.8 (C-5). The NOESY cross-peaks between acetyl proton ([…]) with H-2, H-4, and H-16 of 3c were used to identify the position of the acetyl group in 3c. […] Further systematic investigations are needed to clarify the structure activity relationship associated with the modification of the aliphatic part of the molecule.
# RPMI1640, fetal bovine serum (FBS), and other tissue culture reagents were purchased from Gibco BRL Co. (Grand Island, NY, USA). All other chemicals were obtained from Sigma-Aldrich Co. (St. Louis, MO, USA). Primary antibodies (COX-2: sc-1745; iNOS: sc-650; IκB-α: sc-371; p-IκB-α: sc-8404; p50: sc-7178; p65: sc-8008, Santa Cruz Biotechnology, Dallas, TX, USA, p-ERK: #9101; ERK: #9102; p-JNK: #9251; JNK: #9252S; p-p38: #9211; p38: 9212S, Cell Signaling Technology, Danvers, MA, USA) and secondary antibodies (mouse: ap124p; goat: ap106p; rabbit: ap132p, Millipore, Billerica MA, USA). Enzyme-linked immunosorbent assay (ELISA) kits for PGE2 were purchased from R and D Systems, Inc. (Minneapolis, MN, USA).
# RAW264.7 macrophages = experiment: Cell viability (MTT) cytotoxic assay; assay type: cell-based
# Experimental: RAW264.7 macrophages were maintained at a density of 5 × 10^5 cells/mL in RPMI1640 medium supplemented with 10% heat-inactivated FBS, penicillin G (100 units/mL), streptomycin ([…]), and L-glutamine (2 mM), and were incubated at 37 °C in a humidified atmosphere containing 5% CO2. For determination of cell viability, cells (1 × 10^5 cells/well in 96-well plates) were incubated with 3-(4,5-dimethylthiazol-2-yl)-2,5-diphenyltetrazolium bromide (MTT) at a final concentration of 0.5 mg/mL for 3 h, and the formazan formed was dissolved in acidic 2-propanol. The optical density was measured at 540 nm with a microplate reader (BioRad, Hercules, CA, USA). The optical density of the formazan formed in control (untreated) cells was considered to represent 100% viability.
# [2] = test system: NO production in LPS-treated RAW 264.7 macrophages; experiment: Inhibition of NO production (nitrite, Griess reaction) in LPS-treated RAW264.7 macrophages; assay type: cell-based; conditions: for inhibitory activity on LPS-induced production of NO and PGE2 (in words): LPS-stimulated RAW264.7 macrophages; for IC50: Mus musculus, RAW264.7 macrophages pre-treated 3 h with compound, then LPS (1 μg/mL) 24 h, Griess reaction
# Experimental: as §1
# As an indicator of NO production in RAW264.7 macrophages, production of nitrite, a stable end-product of NO oxidation, was estimated. Briefly, the concentration of nitrite in the conditioned media was determined by a method based on the Griess reaction, and the details of the assay were described previously.
# [3] = test system: pro-inflammatory cytokines and chemokines; set-up: method as in PMID 22767531; conditions: mice model of chronic induced arthritis; cited from earlier work
# iNOS and COX-2 = test system: iNOS and COX-2; set-up: method as in PMID 18366037, PMID 12527810; conditions: human alveolar epithelial A549/8 cells; through blocking activation of STAT-1α; cited from earlier work
# human iNOS promotor = test system: human iNOS promotor; set-up: method as in PMID 18366037; conditions: human alveolar epithelial A549/8 cells; compared with (S)-curvularin (3); cited from earlier work
# E. coli = test system: E. coli; set-up: method as in PMID 26119337; conditions: growth of E. coli; cited from earlier work
IC50 [1] [µM],IC50 [2] [µM],SMILES,"Cytotoxicity (the maximum concentration not affecting cell viability) (RAW264.7 macrophages; RAW264.7 macrophages, MTT) [µM]",further results
> 80,> 80,"C[C@H]1CCC[C@@H](CC(=O)c2c(O)cc(O)cc2CC(=O)O)O1 [Compound 1, curvulone C]",>80,inhibitory activity on LPS-induced production of NO and PGE2 (in words) [2]: appeared to lose the inhibitory activity
> 80,> 80,"COC(=O)Cc1cc(O)cc(O)c1C(=O)C[C@H]1CCC[C@@H](C)O1 [Compound 2, curvulone B]",>80,inhibitory activity on LPS-induced production of NO and PGE2 (in words) [2]: appeared to lose the inhibitory activity
–,–,"CC1CCCCCC(=O)c2c(O)cc(O)cc2CC(=O)O1 (centres unmarked) [Compound 3, curvularin]",–,Cytotoxicity (the maximum concentration not affecting cell viability) (RAW264.7 macrophages; mouse): 40 µM; expression of pro-inflammatory cytokines and chemokines [3]: suppressive effect; inducible transcription and synthesis of iNOS and COX-2 (iNOS and COX-2): inhibited inducible transcription and synthesis of iNOS and COX-2
–,–,"COc1cc(O)c2c(c1)CC(=O)O[C@@H](C)CCCCCC2=O [Compound 3a, 5-O-methylcurvularin]",>80,–
49.4 ± 14,60.6 ± 16.4,"COc1cc2c(c(OC)c1)C(=O)CCCCC[C@H](C)OC(=O)C2 [Compound 3b, 5,7-Di-O-methylcurvularin]",>80,–
73.7 ± 17.1,46.9 ± 3.7,"CC(=O)Oc1cc(O)c2c(c1)CC(=O)O[C@@H](C)CCCCCC2=O [Compound 3c, 5-O-acetylcurvularin]",>80,–
> 80,77.5 ± 9.3,"CC(=O)Oc1cc2c(c(OC(C)=O)c1)C(=O)CCCCC[C@H](C)OC(=O)C2 [Compound 3d, 5,7-Di-O-acetylcurvularin]",>80,inhibitory effect on the cytokine-mediated induction of the iNOS promotor (human iNOS promotor): higher inhibitory effect
–,–,"CO[C@@H]1CCC[C@H](C)OC(=O)Cc2cc(O)cc(O)c2C(=O)C1 [Compound 6, (11R,15S)-11-methoxycurvularin]",20,–
–,–,"CO[C@H]1CCC[C@H](C)OC(=O)Cc2cc(O)cc(O)c2C(=O)C1 [Compound 7, (11S,15S)-11-methoxycurvularin]",20,–

SMILES,IC50 [1] [µM],IC50 [2] [µM],"Cytotoxicity (the maximum concentration not affecting cell viability) (RAW264.7 macrophages; RAW264.7 macrophages, MTT) [µM]",further results
"C[C@H]1CCC[C@@H](O)CC(=O)c2c(O)cc(O)cc2CC(=O)O1 [Compound 4, (11R,15S)-11-hydroxycurvularin]",15.6 ± 5.2,11.5 ± 2.7,40,antibacterial activity (E. coli): inhibiting the growth of E. coli
"C[C@H]1CCC[C@H](O)CC(=O)c2c(O)cc(O)cc2CC(=O)O1 [Compound 5, (11S,15S)-11-hydroxycurvularin]",14.1 ± 4,7.2 ± 1.6,40,antibacterial activity (E. coli): inhibiting the growth of E. coli
"C[C@H]1CCC/C=C\C(=O)c2c(O)cc(O)cc2CC(=O)O1 [Compound 9, (10Z,15S)-10,11-dehydrocurvularin]",6.2 ± 1.1,4.4 ± 0.8,20,–
